{"source": "patent US20110086828A1", "about": "“TREATMENT OF ALCOHOL ABUSE AND […] MODULATORS OF NE[…] SITES ON GABAA RECEPTORS” (Board of Supervisors of Louisiana State University and …, priority 2009, published 2011)", "tested_on": "male Long-Evans hooded rats", "assay": "two-bottle ethanol preference test (ethanol intake) after i.p. neuroactive steroid", "format": "in vivo, rat", "conditions": "for ethanol intake vs baseline / volume of ethanol intake vs baseline: 10 and 56 mg/kg i.p. 15 min before 30-min session; for water intake: 10 and 56 mg/kg i.p.; for effect on ethanol intake (oral self administration of ethanol): summary statement, twenty-two male Long-Evans hooded rats", "method": "Upon arrival, these subjects were housed 4 per cage and provided a diet of standard rodent chow ad libitum (Rodent Diet 5001, PMI Inc., St. Louis, Mo., USA) until postnatal day (hereinafter “PD”) 70. From PD 71 forward, the subjects were housed individually and maintained at 95% of their free-feeding weight during which a saccharin-fading procedure was conducted. Water was provided ad libitum in the home cage except during the experimental sessions. The home cage was made of polypropylene plastic and contained hardwood chip bedding. The colony room was maintained at 21±2 C.° with 50±10% relative humidity on a 14L:10D (light/dark) cycle (lights on 06:00 hours (h); lights off 20:00 h). Following training under the saccharin-fading procedure, the subjects were returned to ad libitum feeding conditions for 73 (minimum) to 89 (maximum) days during which an ethanol concentration-effect curve was established. After this curve was obtained, subjects were maintained at 95% of their free-feeding weight for the rest of the study. Ethanol preference training and experimental sessions were conducted daily during the light cycle between the hours of 12:00 h and 14:00 h. Subjects used in these studies were maintained in accordance with the Institutional Animal Care and Use Committee, Louisiana State University Health Sciences Center, and in compliance with the guidelines of the National Institute of Health Guide for Care and Use of Laboratory Animal Resources (publication No. 85-23, revised 1996).\nWhile still housed 4 per cage, subjects were randomly divided into two groups, a group that received ethanol between PD 35 and 63 (adolescent ethanol group) and a group that received saline during the same postnatal period (adolescent saline group). The adolescent ethanol group (n=11) received 2 g/kg of ethanol intraperitoneally (hereinafter “i.p.”) every other day, whereas the adolescent saline group (n=11) received an equal volume of saline every other day, for a total of 15 injections.\nSubjects were trained to consume ethanol orally using a modified saccharin/ethanol fading procedure (Samson, 1986; Leonard et al., 2006) starting on PD 75. Prior to each daily training session, animals were weighed and then returned to their home cage. Water bottles were removed and replaced for 30 min with 50-ml plastic centrifuge tubes containing a saccharin/ethanol solution and fitted with a rubber stopper and metal sipper tube. At the end of the 30-min session, the drinking tubes were removed, water bottles were replaced, and the volume of the solution consumed was determined by weighing the tubes (i.e., [(weight prior to the session—weight after the session)-0.4 ml)]. All solutions were prepared fresh daily. Rats initially received a 0.2% sodium saccharin(weight (g of sodium saccharin)/volume (100 mL solution))/0% ethanol (volume (mL of alcohol)/volume (100 mL solution)) solution that was gradually replaced until a solution of 0% sodium saccharin/10% ethanol was achieved. After a subject acquired stable saccharin/ethanol intake (±20% of the mean for 3 consecutive days) or a maximum of 8 days elapsed, the next sodiumsaccharin/ethanol solution was presented. Solutions were presented in the following order: 0.2% saccharin/0% ethanol, 0.15% saccharin/0.5% ethanol, 0.125% saccharin/1% ethanol, 0.1% saccharin/2% ethanol, 0.05% saccharin/5% ethanol, 0.01% saccharin/8% ethanol, and 0% saccharin/10% ethanol. Training, which took 40-57 sessions, and all subsequent testing were conducted 7 days per week.\nAfter a stable baseline of ethanol drinking was established with a 10% ethanol solution, a concentration-effect curve for ethanol and water consumption was established using the standard two-bottle preference test. During these tests, subjects were allowed simultaneous access to two drinking tubes daily for 60 min in their home cage. […]", "data": [{"smiles": "CC(=O)OC1CC[C@@]2(C)C(=CC(=O)[C@@H]3[C@@H]2CC[C@]2(C)C(=O)CC[C@@H]32)C1", "note": "(some centres unmarked) [7-keto-DHEA, 3-acetyl-7-oxo-dehydroepiandrosterone]", "values": [{"measurement": "ethanol intake vs baseline", "setting": "18% ethanol", "result": "dose-dependent decreases"}, {"measurement": "volume of ethanol intake vs baseline", "setting": "18% ethanol", "result": "dose-dependent decreases"}, {"measurement": "water intake", "setting": "30-min preference session", "result": "not significantly different"}]}, {"smiles": "C[C@]12CC[C@H](O)CC1=CC[C@@H]1[C@@H]2CC[C@]2(C)C(=O)CC[C@@H]12", "note": "[DHEA, 5-androstene-3β-ol-17-one]", "values": [{"measurement": "ethanol intake volume", "setting": "56 mg/kg i.p., every ethanol concentration except the 18% concentration", "result": "below 1 ml"}, {"measurement": "ethanol intake, first day of injection", "setting": "100 mg/kg i.p. (highest dose), 18% ethanol, p<0.001, n=22", "result": "significant effect"}, {"measurement": "shift of ethanol concentration-effect curve", "setting": "10, 32 and 56 mg/kg i.p. with ethanol 3.2-32%, p<0.05", "result": "shifted downward significantly"}, {"measurement": "ethanol intake at varying ethanol concentrations", "setting": "10 and 32 mg/kg i.p., both doses comparable", "result": "decreased the intake of ethanol concentrations ranging from 3.2 and 18%"}, {"measurement": "ethanol intake vs baseline", "setting": "18% ethanol", "result": "dose-dependent decreases"}, {"measurement": "volume of ethanol intake vs baseline", "setting": "18% ethanol", "result": "dose-dependent decreases"}, {"measurement": "water intake", "setting": "30-min preference session", "result": "not significantly different"}, {"measurement": "ethanol intake vs vehicle, after stability criterion met", "setting": "10 to 100 mg/kg i.p., 18% ethanol, p<0.05, n=22", "result": "significantly decreased intake"}, {"measurement": "effect on ethanol intake (oral self administration of ethanol)", "result": "markedly reduce oral self administration of ethanol"}]}, {"smiles": "CC(=O)[C@H]1CC[C@H]2[C@@H]3CC[C@@H]4C[C@H](O)CC[C@]4(C)[C@H]3CC[C@]12C", "note": "[pregnanolone, 5β-pregnan-3α-ol-20-one]", "values": [{"measurement": "intake of 18% ethanol solution vs vehicle, after stability criterion met", "setting": "10 mg/kg i.p., Holm-Sidak post-hoc, n=22", "result": "significantly differed from vehicle"}, {"measurement": "sedative effects", "setting": "highest dose of pregnanolone", "result": "produced sedative effects"}, {"measurement": "intake of 18% ethanol solution, first day of injection, comparison between doses", "setting": "pregnanolone 3.2 mg/kg i.p. vs 1.8, 5.6 and 10 mg/kg, p<0.05", "result": "significantly higher"}, {"measurement": "intake of 18% ethanol solution vs vehicle, first day of injection", "setting": "pregnanolone 1-10 mg/kg i.p., 30-min preference session, n=22", "result": "none of the effects of dose were different from vehicle"}, {"measurement": "effect on ethanol intake (oral self administration of ethanol)", "result": "no apparent effect on ethanol intake"}]}]}
